Measured values from US20240124418A1 (BioTheryX, Inc., priority 2020, published 2024).

Tests used:
TNF-α = assay: Cell-based TNF-α inhibition assay (LPS-induced PBMCs, Meso Scale); conditions: PBMC, PBMCs pretreated 1 h, LPS 100 ng/mL 18-24 h, percentage of stimulated DMSO control; for inhibition at 0.1 µM: compound concentration 0.1 μM; for inhibition at 1 µM: compound concentration 1 μM
Summary of the method: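 Thawed primary PBMCs (200,000 cells/well, RPMI 1640 with 10% FBS) were pretreated with compound for 1 h, then stimulated with 100 ng/mL LPS for 18–24 h. Supernatant TNF-α was measured by Meso Scale, and activity was expressed as percent inhibition relative to the stimulated DMSO control.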

PDE4B = target: T1, PDE4B (Homo sapiens, UniProt Q07343); assay: Protein degradation assay, western blot, PDE4B in A549 cells; format: cell-based; conditions: 24 h treatment, 'as high as about' = upper value for the group, read-out: PDE4B degradation relative to DMSO
T1 construct: endogenous in cells; host or cells: A549
Description: (§1) Example B2. Protein Degradation Assay
(§2) A549 cells were grown in RPMI 1640 media supplemented with 10% fetal bovine serum, streptomycin, and penicillin. The cells were plated in 6-well plates at 300,000 cells/well in the growth media. After overnight incubation, the cells were treated with DMSO (control) or a compound at predetermined concentrations (e.g., 10 nM, 100 nM, 1 μM, 3 μM, or 10 μM) for 24 h at 37° C. under 5% CO2. Whole cell extracts were prepared using an immunoprecipitation (IP) lysis buffer. The cells were washed once in PBS, and the cell pellets were resuspended in the IP lysis buffer and incubated for 15 min on ice. Cells debris was removed by centrifugation and the cleared whole cell lysates were transferred to new tubes for further analysis.
(§3) For a western blot analysis, the whole cell protein extracts were separated on 4-12% SDS-polyacrylamide gels, transferred to nitrocellulose, and probed with primary antibodies. Membranes were subsequently washed and probed with IRDYE® secondary antibodies. The signals were detected using an ODYSSEY® Imaging System. The antibodies used in the assay included anti-PDE4B antibody; anti-PDE4D antibodies (top, bottom, and short isoform); β-actin mouse monoclonal antibody; IRDYE® 680RD goat anti-rabbit antibody; and IRDYE® 800CW goat anti-mouse antibody. The compounds provided herein are PDE4 protein degraders.

[1] = test system: PDE4D, in particular, PDE4D short isoform; assay: Protein degradation assay, western blot, PDE4D in A549 cells; format: cell-based; conditions: 24 h treatment, same conditions
Description: as §1, §2, §3

T1 sequence (Q07343 whole entry): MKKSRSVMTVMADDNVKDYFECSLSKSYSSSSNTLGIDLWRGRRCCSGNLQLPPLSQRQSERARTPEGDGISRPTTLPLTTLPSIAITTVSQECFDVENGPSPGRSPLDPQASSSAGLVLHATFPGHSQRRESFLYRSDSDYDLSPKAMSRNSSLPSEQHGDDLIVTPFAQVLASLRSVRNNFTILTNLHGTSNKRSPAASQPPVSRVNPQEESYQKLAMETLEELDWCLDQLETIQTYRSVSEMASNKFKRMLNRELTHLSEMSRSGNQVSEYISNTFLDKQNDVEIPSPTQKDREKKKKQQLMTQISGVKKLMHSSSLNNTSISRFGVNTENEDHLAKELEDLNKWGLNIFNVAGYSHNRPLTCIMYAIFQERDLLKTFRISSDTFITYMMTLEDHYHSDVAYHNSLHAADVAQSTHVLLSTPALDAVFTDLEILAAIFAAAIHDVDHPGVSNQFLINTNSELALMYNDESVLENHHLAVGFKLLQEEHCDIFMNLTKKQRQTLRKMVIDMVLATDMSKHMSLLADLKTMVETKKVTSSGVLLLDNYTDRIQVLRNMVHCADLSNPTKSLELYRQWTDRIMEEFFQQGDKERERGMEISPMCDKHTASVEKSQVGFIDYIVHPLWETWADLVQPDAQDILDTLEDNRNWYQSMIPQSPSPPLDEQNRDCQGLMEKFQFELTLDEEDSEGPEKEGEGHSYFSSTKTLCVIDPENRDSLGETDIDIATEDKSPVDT

Dmax (PDE4B) [%] | Structure (SMILES) | inhibition at 0.1 µM (TNF-α) [%] | inhibition at 1 µM (TNF-α) [%] | PDE4D degradation (in words) [1]
≤ 70 | CCOc1cc([C@@H](CS(C)(=O)=O)N2C(=O)c3cccc(NC(=O)CCCCCCCN4CCC(c5cc6c(cc5F)C(=O)N(C5CCC(=O)NC5=O)C6)CC4)c3C2=O)ccc1OC (stereo partly drawn) [Compound A22, 8-{4-[2-(2,6-Dioxopiperidin-3-yl)-6-fluoro-1-oxo-2,3-dihydro-1H-isoindol-5-yl]piperidin-1-yl}-N-{2-[(1S)-1-(3-ethoxy-4-methoxyphenyl)-2-methanesulfonylethyl]-1,3-dioxo-2,3-dihydro-1H-isoindol-4-yl}octanamide] | ≥ 60 | ≥ 60 | 
≤ 70 | O=C1CCC(Nc2cccc(NC(=O)CN3CCN(CCOc4cc(C(=O)Nc5c(Cl)cncc5Cl)ccc4OC(F)F)CC3)c2)C(=O)N1 (stereo not drawn) [Compound B24, N-(3,5-Dichloropyridin-4-yl)-4-(difluoromethoxy)-3-(2-(4-(2-((3-((2,6-dioxopiperidin-3-yl)amino)phenyl)amino)-2-oxoethyl)piperazin-1-yl)ethoxy)benzamide] | ≥ 60 | ≥ 60 | 
≤ 70 | CCOc1cc([C@@H](CS(C)(=O)=O)N2C(=O)c3cccc(NC(=O)CCCCCCCCN4CCC(c5cc(F)cc6c5CN(C5CCC(=O)NC5=O)C6=O)CC4)c3C2=O)ccc1OC (stereo partly drawn) [Compound A13, 9-(4-(2-(2,6-Dioxopiperidin-3-yl)-6-fluoro-1-oxoisoindolin-4-yl)piperidin-1-yl)-N-(2-((S)-1-(3-ethoxy-4-methoxyphenyl)-2-(methylsulfonyl)ethyl)-1,3-dioxoisoindolin-4-yl)nonanamide] | ≥ 60 |  | 
≤ 70 | CCOc1cc([C@@H](CS(C)(=O)=O)N2C(=O)c3cccc(NC(=O)CCCCCCCCCCNCc4ccc(OCc5scc6c5CN(C5CCC(=O)NC5=O)C6=O)cc4)c3C2=O)ccc1OC (stereo partly drawn) [Compound A43, 11-{[(4-{[5-(2,6-Dioxopiperidin-3-yl)-4-oxo-4H,5H,6H-thieno[3,4-c]pyrrol-1-yl]methoxy}phenyl)methyl]amino}-N-{2-[(1S)-1-(3-ethoxy-4-methoxyphenyl)-2-methanesulfonylethyl]-1,3-dioxo-2,3-dihydro-1H-isoindol-4-yl}undecanamide] | ≥ 60 | ≥ 60 | 
 | CCOc1cc([C@@H](CS(C)(=O)=O)N2C(=O)c3cccc(NC(C)=O)c3C2=O)ccc1OC [apremilast] |  |  | did not degradate the PDE4D
≤ 70 | O=C1CCC(N2Cc3c(cc(F)cc3C3CCN(CCCCCCCOc4cc(C(=O)Nc5c(Cl)cncc5Cl)ccc4OC(F)F)CC3)C2=O)C(=O)N1 (stereo not drawn) [Compound B1, N-(3,5-Dichloropyridin-4-yl)-4-(difluoromethoxy)-3-((7-(4-(2-(2,6-dioxopiperidin-3-yl)-6-fluoro-1-oxoisoindolin-4-yl)piperidin-1-yl)heptyl)oxy)benzamide] | < 20 | < 20 | 
≤ 70 | CCOc1cc([C@@H](CS(C)(=O)=O)N2C(=O)c3cc(CCCCCCCC4CCN(c5cccc6c5C(=O)N(C5CCC(=O)NC5=O)C6=O)CC4)cc(NC(C)=O)c3C2=O)ccc1OC (stereo partly drawn) [Compound A8, N-(6-(7-(1-(2-(2,6-Dioxopiperidin-3-yl)-1,3-dioxoisoindolin-4-yl)piperidin-4-yl)-heptyl)-2-((S)-1-(3-ethoxy-4-methoxyphenyl)-2-(methylsulfonyl)ethyl)-1,3-dioxoisoindolin-4-yl)acetamide] | ≥ 60 | ≥ 60 | 
≤ 70 | O=C1CCC(N2Cc3c(cc(F)cc3C3CCN(CCCOc4cc(C(=O)Nc5c(Cl)cncc5Cl)ccc4OC(F)F)CC3)C2=O)C(=O)N1 (stereo not drawn) [Compound B11, N-(3,5-Dichloropyridin-4-yl)-4-(difluoromethoxy)-3-(3-(4-(2-(2,6-dioxopiperidin-3-yl)-6-fluoro-1-oxoisoindolin-4-yl)piperidin-1-yl)propoxy)benzamide] | ≥ 60 | ≥ 60 | 
